# Data published in patent publication US20220226321A1, “INHIBITOR OF MNK FOR THE TREATMENT OF NEUROPATHIC PAIN” (Board of Regents, The University of Texas System, priority 2019, published 2022).
# Entries after “also recorded” stand apart in the source; their conditions may differ.
# Tests used:
# paclitaxel-treated mice = assay: mechanical paw withdrawal threshold (von Frey) in paclitaxel-induced CIPN; assay type: in vivo, mouse; conditions: for mechanical allodynia / hypersensitivity, acute treatment: 10 mg/kg i.p. after full development of CIPN, 1st and 2nd injection, 1 and 3 hrs
# SNI mice [1] = assay: mechanical withdrawal threshold (von Frey) after SNI; assay type: in vivo, mouse; conditions: 1 or 3 hours after treatment on days 1 and 5 of 7-day schedule, 10 mg/kg p.o.
# Method: (§1) Surgery. Spared nerve injury (SNI) was performed by the ligation and cutting of the tibial and peroneal branches of the left sciatic nerve trifurcation, leaving the sural branch intact as previously described (Decosterd and Woolf, 2000). Sham surgeries were performed the same way but without cutting the nerve. Mice were allowed to recover for 2 weeks following surgery.
# Mechanical withdrawal threshold. Tactile sensitivity was measured by probing the left outer surface of the left hindpaw with a series of calibrated von Frey filaments. Mechanical withdrawal thresholds were assessed in all animals before (baseline) and after (2 weeks) surgery to confirm neuropathy. Withdrawal thresholds were calculated using the up-down method (Chaplan et al., 1994).
# SNI mice [2] = assay: conditioned place preference (CPP) after SNI; assay type: in vivo, mouse; conditions: WT SNI, 10 mg/kg i.p., single conditioning day
# Method: Conditioned Place Preference. A previously published CPP protocol from the Walters laboratory protocol was used (Yang et al., 2014). The CPP box consisted of one black and one white chamber connected by a striped chamber. CPP was conducted in a dark room with a single low lumens light source (Maia 69E120-WH). The middle chamber of the CPP box was brightly illuminated to discourage mice from spending time in the middle chamber. […] On day 1 of testing (preconditioning), each mouse was permitted to explore the middle and black (but not white) chambers for 30 minutes. […] On the last day of CPP, each mouse was placed in the middle chamber with unrestricted access to all chambers and video-recorded for 10 min. Data are presented as the percent change in time spent in the drug-paired chambered compared to the control (vehicle or sham for each genotype or surgery). This was calculated by dividing each animal's time spent in the white box by the control average, multiplying by 100 and then subtracting 100.
# as §1
# eIF4E phosphorylation = assay: Western blot of eIF4E phosphorylation in mPFC, DRG and sciatic nerve; assay type: in vivo, mouse
# Method: Western blotting. […] The mPFC and DRGs were rapidly microdissected under a dissecting microscope and then flash frozen on dry ice. The mPFC was similarly collected from a separate group of WT male and female sham and SNI mice at 21 days post injury (the same time point as all rule-shifting experiments). Frozen tissues were homogenized with a pestle in lysis buffer (50 mM Tris, pH 7.4, 150 mM NaCl, 1 mM EDTA, pH 8.0, and 1% Triton X-100) containing protease and phosphatase inhibitors (Sigma-Aldrich), and then sonicated briefly. Samples were centrifuged at 14,000 rpm for 15 min at 4° C. 10 μg of protein was loaded into each well and separated by a 10%-12% SDS-PAGE gel. Proteins were transferred to a 0.45 μm PVDF membrane (Millipore) at 30 V overnight at 4° C. The next day, membranes were blocked with 5% non-fat dry milk (NFDM) in 1× Tris buffer solution containing Tween 20 (TTBS) for 1 h. Membranes were washed in 1×TTBS 3 times for 5 min each, then incubated with primary antibody overnight at 4° C. The primary antibodies used were: phospho-eIF4E (abcam ab76256; 1:1000), GAPDH (Cell Signaling Technology 2118S; 1:10000), total eIF4E (Cell Signaling Technology 9742S; 1:1000). […] Signals were detected using Immobilon Western Chemiluminescent HRP substrate (Millipore). […]
# [3] = test system: cultured mouse DRG neurons; assay: microelectrode array (MEA) recordings of cultured DRG neurons exposed to IL-6; assay type: cell-based; conditions: for spontaneous firing: IL-6 100 ng/ml, tomivosertib 25 nM co-treatment
# Method: Extracellular electrophysiology. Substrate-integrated microelectrode array (MEA) recordings were performed using PDL and laminin pre-treated 12-well MEA plates (Axion Biosystems, USA) and an Axion Maestro recording system. DRG sensory neurons were dissected, dissociated, and seeded as previously described (Moy et al., 2017). […] Cultures were maintained at 37° C., 5% CO2, and ≥90% humidity throughout the recordings. Briefly, 30 min baseline recordings were carried out following a 30 min acclimation period. […] Recordings were then collected continuously for 3 hours. […] Online and offline MEA data analysis was performed using Axion's AxIS, NeuralMetrics Tools, and NeuroExplorer (NeuroExplorer, USA). Physiologically relevant extracellular action potentials were defined as previously described^29.
# mice [4] = assay: marble burying task; assay type: in vivo, mouse; conditions: 10 mg/kg p.o. daily for 7 days, vs WT naïve
# Method: Marble burying task. The marble burying task was used to assess obsessive compulsive disorder (OCD)-like behaviors as previously described^28. Nineteen marbles were placed on top of 5 cm of standard bedding in a clean cage. A mouse was placed into the cage for 30 minutes and then the number of buried marbles was counted.
# mice [5] = assay: rotarod; assay type: in vivo, mouse; conditions: 10 mg/kg i.p., 1 hour
# Method: Rotarod. Motor function was assessed using a rotarod (IITC Life Science rotarod series 8) with ramp speed (20 rpm acceleration) at a starting speed of […] for a maximum of 120s. The time until each animal fell was recorded for each trial. Naïve mice were trained for 1 trial, and then 2 baseline trials were conducted and scores for both trials were averaged.
# DRG neurons = assay: whole-cell patch clamp of cultured DRG neurons treated with IL-6 and eFT508; assay type: cell-based, mouse
# Method: Phosphorylation of the 5′ cap-binding protein eIF4E by MAPK interacting kinases MNK1/2 is important for nociceptor sensitization and the development of chronic pain. IL-6 induced DRG nociceptor excitability is attenuated in mice lacking eIF4E phosphorylation, in MNK1/2^−/− mice and by the nonselective MNK1/2 inhibitor cercosporamide. […] Dorsal root ganglion (DRG) neurons were cultured from male and female ICR mice, 4-7 weeks old. […] Whole-cell patch clamp recordings were done on small diameter neurons (20-30 pF) to measure membrane excitability in response to ramp depolarization. […] These findings are consistent with a model wherein MNK-eIF4E signaling controls the translation of signaling factors that regulate T-type VGCCs in response to IL-6 treatment.
# [6] = test system: models which harbor activating MyD88 mutations; conditions: in vivo, multiple models; cited from earlier work
structure (smiles),measurement,setting,value
"Cc1cc(Nc2cc(N)ncn2)c(=O)n2c1C(=O)NC21CCCCC1 [eFT508, Tomivosertib]","mechanical hypersensitivity (established CIPN), chronic treatment","paclitaxel-treated mice; 1 mg/kg, WT mice",robust relief of mechanical hypersensitivity; also recorded: reverses established CIPN
same,tolerance to repeated dosing,"paclitaxel-treated mice; 1 mg/kg, WT mice",No signs of tolerance; also recorded: without inducing tolerance
same,"mechanical hypersensitivity, chronic treatment","paclitaxel-treated mice; 1 mg/kg, eIF4E^S209A mice",completely absent; also recorded: completely without effect
same,"mechanical allodynia / hypersensitivity, acute treatment",paclitaxel-treated mice,reversal; also recorded: transiently relieves mechanical allodynia
same,"mechanical allodynia / hypersensitivity, acute treatment",paclitaxel-treated mice; listed as eFT08,relieves mechanical allodynia
same,mechanical withdrawal thresholds,SNI mice [1],had no effect
same,more time in the drug-paired (white) chamber vs SNI animals that received vehicle,SNI mice [2],~40%
same,crossing of the blood-brain-barrier,eIF4E phosphorylation; evidenced by western blot of eIF4E phosphorylation after drug-treatment,crosses the blood-brain-barrier
same,"eIF4E phosphorylation in mPFC, DRG and sciatic nerve","eIF4E phosphorylation; naïve mice, 1 hour after 10 mg/kg i.p. or p.o.",rapid and profound decrease; also recorded: significantly decreased
same,"firing, tomivosertib only vs IL-6 only group",[3]; 25 nM,reduction in firing
same,spontaneous firing,[3]; listed as Tomivosertib,significantly reduced
same,spontaneous firing,[3]; listed as tomivosertib,attenuated
same,firing rate at treatment time points vs baseline recording,[3]; tomivosertib only group,no significant difference in firing rate
same,marble burying,mice [4],no differences in marble burying; also recorded: performed similarly to naïve and vehicle-controls
same,rotarod performance vs naïve mice,mice [5],no significant difference
same,latency to the first action potential in the ramp protocol,"DRG neurons; IL-6, eFT508 pretreatment",rescued
same,action potential firing in response to ramp depolarization,"DRG neurons; one hr IL-6, eFT508 pretreatment followed by IL-6",blocked
same,anti-tumor activity,[6],significant anti-tumor activity
